Reference: PMC6052416, “Selective inhibition of carbonic anhydrase-IX by sulphonamide derivatives induces pH and reactive oxygen species-mediated apoptosis in cervical cancer HeLa cells” (Journal of Enzyme Inhibition and Medicinal Chemistry, 2018)
Like-named read-outs stand apart in the source and are kept apart here.

Columns and labels:
[1] = system: HeLa (cervix adenoma cancer cell); test: WST-1 cytotoxicity, HeLa; type: cell-based, human
Experimental: (§1) Cancer and normal cell lines were purchased from ATCC and stored in liquid nitrogen. HT-29 (colon adenoma cancer), HeLa (cervix adenoma cancer cell), MDA-MB-231 (breast adenoma cancer cell), HEK-293 (embryonic kidney epithelial cell) and PNT-1A (normal prostate cells) cell lines were incubated in DMEM: F-12 and RPMI-1640, including 10% foetal bovine serum (FBS), 100 µg/mL streptomycin/100 IU/mL penicillin, at 37 °C in an incubator containing 5% CO2, 95% air in a humid atmosphere.
(§2) The cytotoxic effects of the substances were evaluated with WST-1 kits (Roche, Germany) in accordance with the manufacturer’s protocols. The cells were planted in 96-well plates (10^4 cells in each well). After incubation for 24 h, the media were discarded and the substances and 5-Fu as the control drug, at doses of 0, 2.5, 5, 10, 25, 50, 100 and 200 µM, were incubated for 24, 48 and 72 h. WST-1 reactive of 10 µL was added to all wells. Following 4-h incubation, the measurements were taken on a plate reader (Spectramax M5) at wavelengths of 450 and 630 nm. Graphs were then created and the IC50 value of each substance was calculated.

[2] = target: hCA IX; set-up: method as in PMID 25913118, PMID 26803577; settings: cited from earlier work
[3] = system: HEK-293 (embryonic kidney epithelial cell); test: WST-1 cytotoxicity, HEK-293; type: cell-based; settings: normal cell
Experimental: as §1, §2

[4] = system: MDA-MB-231 (breast adenoma cancer cell); test: WST-1 cytotoxicity, MDA-MB-231; type: cell-based, human
Experimental: as §1, §2

[5] = system: HT-29 (colon adenoma cancer); test: WST-1 cytotoxicity, HT-29; type: cell-based, human
Experimental: as §1, §2

[6] = system: PNT-1A (normal prostate cells); test: WST-1 cytotoxicity, PNT-1A; type: cell-based; settings: normal cell
Experimental: as §1, §2

[7] = target: hCA XII; set-up: method as in PMID 25913118, PMID 26803577; settings: cited from earlier work
[8] = WST-1, 24 h, mean of three experiments, read-out: IC50 HeLa 24 h
[9] = WST-1, 48 h, read-out: IC50 HeLa 48 h
[10] = WST-1, 24 h, read-out: IC50 HEK-293 24 h
[11] = WST-1, 72 h, read-out: IC50 HEK-293 72 h
[12] = WST-1, 48 h, read-out: IC50 MDA-MB-231 48 h
[13] = WST-1, 72 h, read-out: IC50 MDA-MB-231 72 h
[14] = WST-1, 24 h, read-out: IC50 HT-29 24 h
[15] = WST-1, 48 h, read-out: IC50 HT-29 48 h
[16] = WST-1, 72 h, read-out: IC50 HT-29 72 h
[17] = WST-1, 72 h, read-out: IC50 HeLa 72 h
[18] = WST-1, 48 h, read-out: IC50 HEK-293 48 h
[19] = WST-1, 24 h, read-out: IC50 PNT-1A 24 h
[20] = WST-1, 48 h, read-out: IC50 PNT-1A 48 h
[21] = WST-1, 72 h, read-out: IC50 PNT-1A 72 h

| SMILES | IC50 [1, 8] [µM] | IC50 [1, 9] [µM] | Ki [2] [µM] | IC50 [3, 10] [µM] | IC50 [3, 11] [µM] | IC50 [4, 12] [µM] | IC50 [4, 13] [µM] | IC50 [5, 14] [µM] | IC50 [5, 15] [µM] | IC50 [5, 16] [µM] | IC50 [1, 17] [µM] | IC50 [3, 18] [µM] | IC50 ([4]; WST-1, 24 h, read-out: IC50 MDA-MB-231 24 h) [µM] | IC50 [6, 19] [µM] | IC50 [6, 20] [µM] | IC50 [6, 21] [µM] | Ki [7] [µM] |
| --- | --- | --- | --- | --- | --- | --- | --- | --- | --- | --- | --- | --- | --- | --- | --- | --- | --- |
| Cc1cccc(C=NCCc2ccc(S(N)(=O)=O)cc2)c1O [Compound 2] | 27.1 ± 1.3 | 49.6 ± 0.8 | 0.295 | 114 ± 3.44 | 75.2 ± 5.6 |  |  |  |  |  |  |  |  |  |  |  |  |
| Cc1cccc(C=Nc2ccc(S(N)(=O)=O)cc2)c1O [Compound 3] | 36.3 ± 0.2 | 29.8 ± 2.3 | 0.465 | 196 ± 14.3 | 37.9 ± 3.6 | 80.6 ± 12.4 | 96.7 ± 33.4 |  |  |  |  |  |  |  |  |  |  |
| Cc1ccc(C=NCCc2ccc(S(N)(=O)=O)cc2)cc1 [Compound 4] |  |  | 0.123 |  | 96.2 ± 12.2 |  | 178 ± 11.2 | 33 ± 2.3 | 23.7 ± 2.2 | 119 ± 23.2 |  |  |  |  |  |  |  |
| O=c1[nH]cc(F)c(=O)[nH]1 [Compound 5-FU, reference compound] | 37.8 ± 4.3 | 31.2 ± 2.3 |  | 44.6 ± 7.2 | 14.5 ± 3.2 | 37.9 ± 12.3 | 21 ± 4.3 | 47.3 ± 1.2 | 23.4 ± 2.1 | 19.3 ± 1.2 | 14.7 ± 0.6 | 19.8 ± 2.3 | 42.6 ± 2.56 | 23.1 ± 4.55 | 21.2 ± 2.2 | 17.5 ± 7.6 |  |
| Cc1ccc(C=Nc2ccc(S(N)(=O)=O)cc2)cc1 [Compound 5] |  | 182 ± 12.2 | 0.0237 |  | 170 ± 11.2 | 74.7 ± 12.4 |  |  |  |  |  |  |  |  |  |  | 0.0099 |
| COc1ccc(C=Nc2ccc(S(N)(=O)=O)cc2)cc1 [Compound 6] |  | 198 ± 14.3 | 0.883 |  | 100 ± 22.2 |  |  |  |  | 187 ± 23.4 | 123 ± 11.1 |  |  | 154 ± 16.5 | 120 ± 11.2 | 76.4 ± 13.3 | 0.0112 |
| COc1ccc(C=NCCc2ccc(S(N)(=O)=O)cc2)cc1 [Compound 7] |  |  | 0.231 | 120 ± 13.8 | 85.4 ± 11.2 | 123 ± 12.3 | 98.2 ± 11.2 |  |  |  |  | 98.3 ± 11.2 |  |  | 190 ± 8.6 | 130 ± 32.2 |  |
